The data set in a line: in vivo. The settings on record: rat, serum, po, 25 mg/kg.

The values below come from patent US20040070093A1, “Process for preparing microparticles through phase inversion phenomena” (Brown University Research Foundation, priority 1995, published 2004).

Method: Dicumarol containing microspheres were produced as described above in Example 2, subsection 1. Equal doses of dicumarol, spray dried dicumarol and polyanhydride (FA:SA) 20:80 encapsulated dicumarol (25 mg drug/kg body weight) suspended in 1.5 ml maple syrup were fed to catheterized rats (250-350 g). Blood samples were taken at regular intervals and serum was assayed for dicumarol concentrations using a UV spectrophotometric method.

A word on the AUC: it is concentration integrated over time. A lower AUC goes with low exposure. The term Cmax denotes the peak of the concentration-time curve. What is called Tmax is the time from dosing to the highest level. Broadly, the half-life is the time needed for the level to fall by half in the phase considered. Low values mean fast loss, high ones slow loss. Consider `O=c1oc2ccccc2c(O)c1Cc1c(O)c2ccccc2oc1=O` [SPRAY DICUMAROL CONTROL, dicumarol], for which the AUC turned out to be 232 ± 19.2 µg·h/mL, the highest level (Cmax) was 17900 ± 1220 ng/mL, the Tmax stood at 9.42 ± 1.36 h and the half-life was 16.2 ± 0.87 h.
